Laboratory results reported in patent US8206943B1, “Assay for PCSK9 inhibitors” (Schering Corporation, priority 2008, dated 2012).

What was measured:
PCSK9 [1] = target: T1, PCSK9 (Homo sapiens, UniProt Q8NBP7); assay: HPLC / chromatographic analysis of PCSK9 autoproteolysis (cis-cleavage) in the presence of inhibitors; format: biochemical; set-up: Pro-Cat-Domain Polypeptide; initiator Met (N); made in house; host or cells: E. coli BL-21(DE3)
Protocol: Unprocessed PCSK9 (18 μM for NanoStream experiment, 8 μM for BioRad Experion experiment) was incubated at 25° C. in 25 mM Hepes pH 7.5, 150 mM NaCl, 10% glycerol and 1 mM EDTA (4% DMSO may be added to uninhibited control assays when run in conjunction with assays that include inhibitors dissolved in DMSO). At the designated time points (t=0 minutes, 60 minutes and 240 minutes), aliquots from the 18 μM incubation were quenched by adding guanidine hydrochloride to a concentration of 6M, then the quenched reaction was applied (1 μl) to NanoStream Brio #4207007 (300 Å, C4) chromatography cassette. Following gradient elution, from the cassette, using 0.1% TFA in water (solvent A) and 0.085% TFA in acetonitrile (solvent B), the peaks were quantitated by absorbance at 214 nm.
Furthermore, a chromatographic analysis of PCSK9 autoproteolysis was performed in the presence of various inhibitors. This assay was used to determine the effect of the inhibitors Tris (2-carboxyethyl) phosphine (TCEP; a reducing agent) and tosyl-L-lysine chloromethyl ketone (TLCK) on the PCSK9 autoproteolysis reaction. In these assay, the ProCat peak is uncleaved PCSK9 whereas the Pro- and Cat-peaks indicate generation of the Pro- and Cat-domains, which indicates autoproteolytic cleavage by PCSK9. FIG. 5(a) sets forth the data in the assay wherein the Tris (2-carboxyethyl) phosphine inhibitor was assayed. […] In the control-A experiment, Tris (2-carboxyethyl) phosphine was added at t=zero minutes of a 6 hour incubation. Tris (2-carboxyethyl) phosphine is a disulfide reducing agent that is not oxidized by air.
In the control-B experiment set forth in FIG. 5(a), Tris (2-carboxyethyl) phosphine was added at the end of a 6 hour incubation. The appearance of the Pro- and Cat-domains in the control B assay indicate the occurrence of autoproteolysis.
FIG. 5(b) sets forth data wherein inhibition mediated by TCEP (Tris (2-carboxyethyl) phosphine) and TLCK (tosyl-L-lysine chloromethyl ketone) are compared, side-by-side, in an autoproteolysis assay. […] The inhibitors are added at time zero. TCEP was added at 5 mM to quench the reaction; this sample serves as the 100% inhibited control—Control A in FIG. 5. TLCK was added at a concentration of 77 μM.
An HPLC analysis was performed on unprocessed PCSK9. A sample containing 12 uM unprocessed PCSK9 in 25 mM Hepes buffer pH 7.5, 150 mM NaCl, 1 mM EDTA, 10% glycerol and 4.0% DMSO was incubated at 25° C. […] One microliter of the reaction mixture was analyzed directly by reversed phase-HPLC using Express-LC100, a micro fluidic chromatographic system from Eksigent. […] The flow rate was 12 uI per minute and the sample components were detected at 214 nm. The amount of ProCat polypeptide was calculated as % of sum of peak areas corresponding to Pro-, Cat- and ProCat domains. […]
Target sequence in this assay (Q8NBP7 with tags, fused parts or gaps): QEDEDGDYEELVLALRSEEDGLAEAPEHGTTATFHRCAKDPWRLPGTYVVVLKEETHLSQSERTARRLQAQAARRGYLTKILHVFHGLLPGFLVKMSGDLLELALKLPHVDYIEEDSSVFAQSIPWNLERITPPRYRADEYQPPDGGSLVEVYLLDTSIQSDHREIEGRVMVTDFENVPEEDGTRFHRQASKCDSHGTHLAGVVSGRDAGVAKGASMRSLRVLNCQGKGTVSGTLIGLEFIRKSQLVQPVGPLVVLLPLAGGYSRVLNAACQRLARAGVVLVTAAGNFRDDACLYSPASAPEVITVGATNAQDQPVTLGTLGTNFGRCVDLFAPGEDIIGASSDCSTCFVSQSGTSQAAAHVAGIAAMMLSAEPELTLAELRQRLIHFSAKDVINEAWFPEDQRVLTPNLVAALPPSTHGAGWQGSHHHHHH

PCSK9 [2] = target: T1, PCSK9; assay: Cis-cleavage assay for PCSK9 using immuno-detection (ELISA of remaining FLAG-tag on HisSorb plate); format: biochemical; set-up: A DNA fragment corresponding to residues 31-454 of human PCSK9 (Pro-Cat domains) was made synthetically; made in house; host or cells: E. coli (pDest14 vector; expressed as for the first construct, BL-21(DE3)); conditions: 100 uM, 30° C. for 4 hours
Protocol: This example describes an assay to monitor the cis-cleavage of human PCSK9 using immuno-detection methods. A construct of human PCSK9 was created to have an N-terminal FLAG-tag and a (His)6-tag on the C-terminus. After incubation, the reaction was quenched and the domains were disassociated with 4.0 M urea. The protein was transferred to and bound, via the His-tag, to a HisSorb plate (Qiagen; Valencia, Calif.; nickel-nitrilotriacetic acid (Ni-NTA) coated plate). The amount of cleavage was determined by measuring the remaining FLAG-tag using standard ELISA techniques. Using this method, the sensitivity of the assay was increased at least 1000-fold over gel-based techniques and the micro-titer format makes the assay compatible with high throughput screening methods.
Cloning and expression. A DNA fragment corresponding to residues 31-454 of human PCSK9 (Pro-Cat domains) was made synthetically (GeneScript Corp., Piscataway, N.J.). Additional bases were included to add a Not1 restriction site and a Shine-Dalgarno initiation sequence to the 5′-end. A GS-(His)6 tag followed by a Asc1 restriction site was added to the 3′-end. A Gateway vector of PCSK9 was produced as FLAG-Pro-Cat(454)-GS-(His)6 by restriction digestion/ligation into the pDest14 expression vector. Expression and purification of the protein was done as previously described with aliquots frozen at −80° C. […]
Target sequence in this assay (Q8NBP7 31-454): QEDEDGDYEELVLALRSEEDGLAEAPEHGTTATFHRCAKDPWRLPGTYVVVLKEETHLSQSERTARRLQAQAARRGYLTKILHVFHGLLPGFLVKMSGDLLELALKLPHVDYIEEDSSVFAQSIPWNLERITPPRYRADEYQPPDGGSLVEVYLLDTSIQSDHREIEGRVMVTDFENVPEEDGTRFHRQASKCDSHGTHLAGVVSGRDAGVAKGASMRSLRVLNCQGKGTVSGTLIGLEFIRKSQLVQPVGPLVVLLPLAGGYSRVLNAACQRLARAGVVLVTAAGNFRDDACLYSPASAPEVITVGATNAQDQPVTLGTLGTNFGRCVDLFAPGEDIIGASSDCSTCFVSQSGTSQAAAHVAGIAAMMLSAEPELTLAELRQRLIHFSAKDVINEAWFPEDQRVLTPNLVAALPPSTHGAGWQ

[3] = 77 μM, added at time zero, FIG. 5(b)

Row | Compound | inhibition of cis-cleavage activity (PCSK9 [1]; 5 mM, added at t=zero minutes of a 6 hour incubation (control-A), FIG. 5(a)) | inhibition of cis-cleavage reaction (PCSK9 [1]; 77 uM, 6 hour incubation at 25° C., 12 uM unprocessed PCSK9) | Pro- and Cat-domains in comparison to Control-A (TCEP) (PCSK9 [1]; [3]) | ProCat peak (uncleaved PCSK9) in comparison to Control-A (TCEP) (PCSK9 [1]; [3]) | inhibition of cis-cleavage (negative control) (PCSK9 [2])
1 | O=C(O)CCP(CCC(=O)O)CCC(=O)O [TCEP, Tris (2-carboxyethyl) phosphine] | complete inhibition | – | – | – | –
2 | tosyl-L-lysine chloromethyl ketone [TLCK] | – | significant inhibition | slight increase | small decrease | 100%
